Assay results taken from patent US7449537B2, “Antineoplastic polyalkoxyalkylsiloxanes and methods of use thereof” (NDSU Research Foundation, priority 2001, dated 2008).

Assays:
Type in all cases: cell-based, human
[1] = test system: 3-cell line panel MCF7, NCI-H460, SF-268; assay: DTP screen, overall activity call over the 3-cell line panel; parameters: key to Activity: Active: Compounds which reduce the growth of any one of the cell lines to a value of +32% or less (negative numbers indicate cell kill) are generally considered to be sufficiently “active”; settings: for Activity: 1.00 E-04 Molar; for antineoplastic activity in the DTP screen: three test cell lines
Excerpt: (§1) For the past 10 years, the Developmental Therapeutics Program (DTP) of the National Cancer Institute (NCI) has used an in vitro model consisting of 60 human tumor cell lines as the primary anticancer screen (see, J. Natl. Cancer Inst., 83:757-766, (1991)). […] In view of this, the DTP now uses a 3-cell line panel consisting of the MCF7(breast carcinoma) cell line, the NCI-H460 (lung carcinoma) cell line, and the SF-268 (CNS glioma) cell line as its primary anticancer (antineoplastic) assay. This 3-cell line, single-dose assay has been in use by DTP for several years for the evaluation of combinatorial libraries and has proven to be an effective pre-screen for compounds with antineoplastic activity.
(§2) In the DTP protocol, each cell line is inoculated and preincubated on a microtiter plate. Test agents are then added at a single concentration and the culture incubated for 48 hours. End-point determination are made with sulforhodamine B, a protein-binding dye. Results for each test agent are reported as the percent of growth of the treated cells normalized against the growth of the corresponding untreated control cells, i.e., a reported value of +100% refers to cell growth equivalent to that of the corresponding untreated control cells. […] Compounds which reduce the growth of any one of the cell lines to a value of +32% or less (negative numbers indicate cell kill) are generally considered to be sufficiently “active” to be selected for further evaluation by NCI in a full panel of 60 tumor cell lines over a 5-log dose range.
(§3) Two poly((aminofunctional alkoxy)-alkylsiloxane) compounds were tested for antineoplastic activity in the DTP screen. The two compounds (linear poly((aminofunctional alkoxy)-alkylsiloxanes) 5 and 3) were prepared according to the procedures described in Examples 2 and 5 above, respectively. […] This compound includes 1,3-N,N-dimethylamino-2-propoxy groups.

[2] = test system: MCF7 (breast carcinoma) cell line; assay: DTP 3-cell line single-dose antineoplastic pre-screen (sulforhodamine B); settings: 1.00 E-04 Molar, 48 hours, growth relative to untreated control cells; negative = cell kill
Excerpt: as §1, §2, §3

[3] = test system: NCI-H460 (lung carcinoma) cell line; assay: as above; settings: 1.00 E-04 Molar, 48 hours, growth relative to untreated control cells; negative = cell kill
Excerpt: as §1, §2, §3

[4] = test system: SF-268 (CNS glioma) cell line; assay: as above; settings: 1.00 E-04 Molar, 48 hours, growth relative to untreated control cells; negative = cell kill
Excerpt: as §1, §2, §3

Compound	Activity [1]	antineoplastic activity in the DTP screen [1]	Growth Percentages (Breast) MCF7 [2]	Growth Percentages (Lung) NCI-H460 [3]	Growth Percentages (CNS) SF-268 [4]
C[Si](C)(C)O[Si](C)(OCCCN)O[Si](C)(OCCCN)O[Si](C)(C)C (stereo not shown) [Compound 3, bis-(trimethylsiloxy)-1,3-dimethyl-1,3-(3-amino-1-propoxy)siloxane]	Inactive	inactive	–	–	–
CN(C)CC(CN(C)C)O[Si](C)(O[Si](C)(C)C)O[Si](C)(OC(CN(C)C)CN(C)C)O[Si](C)(C)C (stereo not shown) [Compound 5, bis-(trimethylsiloxy)-1,3-dimethyl, 1,3-(1,3-(N,N-dimethylamino)-2-propoxy)siloxane]	Active	showed antineoplastic activity against all three test cell lines	−5%	−16%	−24%
